How the values were obtained:
[1] = tested on: methicillin resistant S. aureus Mu50 strain (S. aureus ATCC700699) biofilm; test: Biofilm susceptibility to vancomycin, pre-treatment regimen (biofilm formed in presence of compound, then vancomycin); format: cell-based; conditions: for Pretreat (100 μM): percentage Colony Forming Units (CFU's) per biofilm: compound 100 μM during biofilm formation, then VAN 20 μg/ml, compared to the untreated (negative) control; for EC50: concentration needed to get 50% killing compared to antibiotic alone (VAN 20 μg/ml) and complete killing, read-out: Pretreat. (EC50)
Summary of the method: (§1)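 Mu50 biofilms from 10^8 CFU/ml inoculum (4 h adhesion, then 20 h, 37 °C). Pre-treatment: compound (0.1-250 μM) present during biofilm formation, then vancomycin 20 μg/ml alone 24 h; combination: mature biofilm given vancomycin 20 μg/ml plus compound 24 h. Survivors counted by plating versus vancomycin alone.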

[2] = tested on: methicillin resistant S. aureus Mu50 strain (S. aureus ATCC700699) biofilm; test: Biofilm susceptibility to vancomycin, combination treatment regimen (mature biofilm treated with compound plus vancomycin); format: cell-based; conditions: for Combin. (100 μM): percentage Colony Forming Units (CFU's) per biofilm: compound 100 μM together with VAN 20 μg/ml on mature biofilm, compared to the untreated (negative) control; for EC50: concentration needed to get 50% killing compared to antibiotic alone (VAN 20 μg/ml) and complete killing, read-out: Combin. (EC50)
Summary of the method: as §1

Row | Compound | Pretreat (100 μM): percentage Colony Forming Units (CFU's) per biofilm [1] | EC50 [1] | Combin. (100 μM): percentage Colony Forming Units (CFU's) per biofilm [2] | EC50 [2]
1 | O=C(NC[C@H]1OC[C@@](O)(CNC(=O)c2cc(O)c(O)c(O)c2)[C@@H]1O)c1cc(O)c(O)c(O)c1 [compound 264, N,N′-(((2R,3R,4S)-3,4-dihydroxytetrahydrofuran-2,4-diyl)bis(methylene))bis(3,4,5-trihydroxybenzamide)] | 22.35 percentage | 63.8 µM | 57.74 percentage | 191 µM
2 | O=C(NC[C@@H]1OC[C@@](O)(CNC(=O)c2ccccc2)[C@@H]1O)c1ccccc1 [compound 270, N,N′-(((2S,3R,4S)-3,4-dihydroxytetrahydrofuran-2,4-diyl)bis(methylene))dibenzamide] | 51.80 percentage | 224 µM | 55.70 percentage | > 250 µM

From US10023602B2, “Hamamelitannin analogues and uses thereof” (Universiteit Gent, priority 2014, dated 2018)
